Laboratory results as given in patent US11466013B2 (Betta Pharmaceuticals Co., LTD, priority 2018, dated 2022).

How the values were obtained:
[1] = tested on: COLO205 cells; assay: Cell proliferation assay (COLO205), Cell-titer Glo; assay type: cell-based; details: Homo sapiens, COLO 205, 120 h incubation
Method: COLO205 cells were spread into a 96-well plate at 135 μL/well at 2000 cells. After incubating overnight, compound solutions of gradient concentration was prepared, and added 15 μL of DMSO solution of the test compound of each concentration to the cells of each well. The final concentration of the compound was 30000, 10000, 3333.3, 1111.1, 370.4, 123.5, 41.2, 13.7, 4.6, 0 nM (the final concentration of DMSO was 0.5%). 5% CO2 was incubated for 120 h at 37° C. 50 μL of Cell-titer Glo working solution was added to each well, shaked and mixed, and incubated at room temperature for 10 minutes. The multi-functional microplate reader read the luminescence value, and converted the luminescence value reading into inhibition percentage. Inhibition percentage=(maximum value−reading)/(maximum value−minimum value)*100.
The “maximum value” was the DMSO control, the “minimum value” indicates the cell-free control group.
(§1) Graphpad Prism software was used to perform curve fitting and obtain IC50 value.

[2] = tested on: HCT 116 cells; assay: Cell proliferation assay (HCT 116), Cell-titer Glo; assay type: cell-based; details: Homo sapiens, 120 h incubation
Method: The HCT 116 cells were paved in a 96-well plate at 1200 cells, 160 μL/well. After incubating overnight, the compound solutions of gradient concentration was prepared, and 40 μL of DMSO solution of the test compound of each concentration was added to the cells of each well. The final concentration of the compound was 30000, 10000, 3333.3, 1111.1, 370.4, 123.5, 41.2, 13.7, 4.6, 0 nM (the final concentration of DMSO was 0.5%). 5% CO2 was incubated for 120 h at 37° C. 50 μL of Cell-titer Glo working solution was added to each well, shaked and mixed, and incubated at room temperature for 10 minutes. The multi-functional microplate reader read the luminescence value, and converted the luminescence value reading into inhibition percentage. Inhibition percentage=(maximum value−reading)/(maximum value−minimum value)*100.
The “maximum value” was the DMSO control, the “minimum value” indicated the cell-free control group.
as §1

[3] = biological target: ERK1 (Homo sapiens, UniProt P27361); assay: Kinase assay (Caliper, FAM-labeled peptide), ERK1; assay type: biochemical
In short: (§2)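 Kinase preincubated 10 min at room temperature with serially diluted compound before FAM-labeled peptide plus ATP added; reaction run at 28 °C, then stopped. Substrate conversion read by Caliper mobility shift, normalized to DMSO and low controls, curve-fitted for IC50.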

[4] = biological target: ERK2 (Homo sapiens, UniProt P28482); assay: Kinase assay (Caliper, FAM-labeled peptide), ERK2; assay type: biochemical
In short: as §2

ERK1, sequence (P27361 whole entry): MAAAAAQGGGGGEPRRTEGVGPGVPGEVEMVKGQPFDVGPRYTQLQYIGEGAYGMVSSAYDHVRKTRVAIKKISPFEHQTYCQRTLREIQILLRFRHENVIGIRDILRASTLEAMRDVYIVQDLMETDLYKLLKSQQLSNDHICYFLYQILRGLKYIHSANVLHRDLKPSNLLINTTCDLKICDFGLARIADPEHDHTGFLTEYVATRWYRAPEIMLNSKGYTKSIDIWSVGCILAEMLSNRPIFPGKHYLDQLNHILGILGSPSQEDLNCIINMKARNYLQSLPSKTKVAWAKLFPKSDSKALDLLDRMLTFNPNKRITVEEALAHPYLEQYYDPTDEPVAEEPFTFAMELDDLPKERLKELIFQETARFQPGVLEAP
ERK2, sequence (P28482 whole entry): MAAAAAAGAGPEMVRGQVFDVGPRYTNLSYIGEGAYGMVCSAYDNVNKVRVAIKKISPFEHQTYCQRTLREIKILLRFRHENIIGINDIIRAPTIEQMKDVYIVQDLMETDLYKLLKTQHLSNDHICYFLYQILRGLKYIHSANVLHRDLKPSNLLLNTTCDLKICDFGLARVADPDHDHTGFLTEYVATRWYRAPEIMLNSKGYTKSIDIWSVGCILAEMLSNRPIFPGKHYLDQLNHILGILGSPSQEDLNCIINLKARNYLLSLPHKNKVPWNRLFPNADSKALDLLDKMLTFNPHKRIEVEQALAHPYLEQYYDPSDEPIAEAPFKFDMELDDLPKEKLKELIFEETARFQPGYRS

In the case of COC[C@H]1Cn2cc(-c3nc(Nc4ccnn4C)ncc3C)nc2C(=O)N1Cc1ccc(F)c(F)c1 [AZD0364, reference compound], the IC50 [1] is reported as 72.4 nM and the IC50 [2] is reported as 83 nM.
CC(C)Nc1cc(-c2cc3n(c2)CCN(Cc2cc(F)ccc2CO)C3=O)c(Cl)cn1 [Example 18, 7-(5-chloro-2-(isopropylamino)pyridin-4-yl)-2-(5-fluoro-2-(hydroxymethyl)benzyl)-3,4-dihydropyrrolo[1,2-a]pyrazine-1(2H)-one] was tested, and the IC50 [3] was 0.4 nM, the IC50 [1] was 56.6 nM and the IC50 [4] was 0.49 nM.
With CC(C)Nc1cc(-c2cc3n(c2)CC(O)CN(Cc2cc(F)ccc2CO)C3=O)c(Cl)cn1 (stereo not drawn) [Example 20, 8-(5-chloro-2-(isopropylamino)pyridin-4-yl)-2-(5-fluoro-2-(hydroxymethyl)benzyl)-4-hydroxy-2,3,4,5-tetrahydro-1h-pyrrolo [1,2-a][1,4]diazepine-1-one] the IC50 [3] was 0.34 nM, the IC50 [1] was 76.7 nM and the IC50 [4] was 0.56 nM.
CC(C)Nc1cc(-c2cc3n(c2)CCCN(Cc2cc(F)c(F)cc2CO)C3=O)c(Cl)cn1 [Example 21, 8-(5-chloro-2-(isopropylamino)pyridin-4-yl)-2-(4,5-difluoro-2-(hydroxymethyl)benzyl)-2,3,4,5-tetrahydro-1h-pyrrolo[1,2-a][1,4] diazepine-1-one] showed an IC50 [3] of 0.73 nM, an IC50 [1] of 73.3 nM and an IC50 [4] of 0.76 nM.
Cc1cnc(Nc2ccnn2C)nc1-c1c[nH]c(C(=O)NCc2cc(F)ccc2CO)c1 [Example 22, N-(5-fluoro-2-(hydroxymethyl)benzyl)-4-(5-methyl-2-((1-methyl-1H-pyrazol-5-yl)amino)pyrimidin-4-yl)-1H-pyrrole-2-carboxamide] showed an IC50 [3] of 0.43 nM, an IC50 [1] of 35.3 nM and an IC50 [4] of 0.34 nM.
Molecule Cc1cnc(Nc2ccnn2C)nc1-c1cc2n(c1)CCN(Cc1cc(F)ccc1CO)C2=O [Example 23, 2-(5-Fluoro-2-(hydroxymethyl)benzyl)-7-(5-methyl-2-((1-methyl-1H-pyrazol-5-yl)amino)pyrimidin-4-yl)-3,4-dihydropyrrolo[1,2-a]pyrazine-1(2H)-one] has an IC50 [3] of 0.42 nM, an IC50 [1] of 18.7 nM and an IC50 [4] of 0.48 nM.
Molecule CC(C)Nc1cc(-c2cc3n(c2)CC2(CNC2)CN(Cc2ccccc2CO)C3=O)c(Cl)cn1 [Example 24, 8′-(5-Chloro-2-(isopropylamino)pyridin-4-yl)-2′-(2-(hydroxymethyl)benzyl)-2′,3′-dihydro-1′H,5′H-spiro[azetidine-3,4′-pyrrolo[1,2-a][1,4]diazepine]-1′-one] has an IC50 [3] of 0.65 nM, an IC50 [1] of 50 nM and an IC50 [4] of 0.53 nM.
In the case of CC(C)Nc1cc(-c2cc3n(c2)CC(CO)(CO)CN(Cc2ccccc2CO)C3=O)c(Cl)cn1 [Example 27], the IC50 [3] is reported as 0.96 nM, the IC50 [1] is reported as 9.6 nM and the IC50 [4] is reported as 0.59 nM.
Cc1cnc(NC2CCOC2)nc1-c1cc2n(c1)CCN(Cc1cc(F)ccc1CO)C2=O (stereo not drawn) [Example 33, 2-(5-fluoro-2-(hydroxymethyl)benzyl)-7-(5-methyl-2-((tetrahydrofuran-3-yl)amino)pyrimidin-4-yl)-3,4-dihydropyrrolo[1,2-a]pyrazine-1(2H)-one] gave an IC50 [3] of 0.45 nM, an IC50 [1] of 76 nM and an IC50 [4] of 0.4 nM.
For CCn1nccc1Nc1cc(-c2cc3n(c2)C[C@H](COC)N(Cc2cc(F)ccc2CO)C3=O)c(Cl)cn1 [Example 52, (R)-7-(5-chloro-2-((1-ethyl-1H-pyrazol-5-yl)amino)pyridin-4-yl)-2-(5-fluoro-2-(hydroxymethyl)benzyl)-3-(methoxymethyl)-3,4-dihydropyrrolo[1,2-a]pyrazine-1(2H)-one], the IC50 [1] was 13.6 nM and the IC50 [2] was 10.7 nM.
COC[C@H]1Cn2cc(-c3cc(Nc4ccnn4C(F)F)ncc3Cl)cc2C(=O)N1Cc1cc(F)ccc1CO [Example 54, (R)-7-(5-chloro-2-((1-(difluoromethyl)-1H-pyrazol-5-yl)amino)pyridin-4-yl)-2-(5-fluoro-2-(hydroxymethyl)benzyl)-3-(methoxymethyl)-3,4-dihydropyrrolo[1,2-a]pyrazine-1(2H)-ketone] was tested, and the IC50 [2] was 16.2 nM.
COC[C@H]1Cn2cc(-c3cc(N[C@H]4CC[C@H](O)CC4)ncc3Cl)cc2C(=O)N1Cc1cc(F)ccc1CO [Example 71, (R)-7-(5-chloro-2-(((1R,4R)-4-hydroxycyclohexyl)amino)pyridine-4-yl)-2-(5-fluoro-2-(hydroxymethyl)benzyl)-3-(methoxymethyl)-3,4-dihydropyrrolo[1,2-a] pyrazine-1(2H)-one] gave an IC50 [3] of 1.1 nM, an IC50 [4] of 1.4 nM and an IC50 [2] of 27 nM.
COC[C@H]1Cn2cc(-c3cc(Nc4conc4C)ncc3Cl)cc2C(=O)N1Cc1cc(F)ccc1CO [Example 83, (R)-7-(5-chloro-2-((3-methylisoxazole-4-yl)amino)pyridine-4-yl)-2-(5-fluoro-2-(hydroxymethyl)benzyl)-3-(methoxymethyl)-3,4-dihydropyrrolo[1,2-a] pyrazine-1(2H)-one] was tested, and the IC50 [2] was 23 nM.
COC[C@H]1Cn2cc(-c3cc(Nc4ccn(C)n4)ncc3Cl)cc2C(=O)N1Cc1cc(F)ccc1CO [Example 86, (R)-7-(5-chloro-2-((1-methyl-1h-pyrazole-3-yl)amino)pyridine-4-yl)-2-(5-fluoro-2-(hydroxymethyl)benzyl)-3-(methoxymethyl)-3,4-dihydropyrrolo[1,2-a] pyrazine-1(2H)-one] gave an IC50 [3] of 0.91 nM, an IC50 [1] of 29.4 nM and an IC50 [4] of 0.8 nM.
Work on COC[C@H]1Cn2cc(-c3cc(Nc4ccnn4C)ncc3Cl)cc2C(=O)N1Cc1cccc(F)c1CO [Example 98, (R)-7-(5-chloro-2-((1-methyl-1h-pyrazole-5-yl)amino)pyridine-4-yl)-2-(3-fluoro-2-(hydroxymethyl)benzyl)-3-(methoxymethyl)-3,4-dihydropyrrolo[1,2-a] pyrazine-1(2H)-one] yielded an IC50 [1] of 10.7 nM and an IC50 [2] of 9 nM.
With COC[C@H]1Cn2cc(-c3cc(Nc4ccnn4CC(F)F)ncc3Cl)cc2C(=O)N1Cc1cc(F)ccc1CO [Example 115, (R)-7-(5-chloro-2-((1-(2,2-difluoroethyl)-1h-pyrazole-5-yl)amino)pyridine-4-yl)-2-(5-fluoro-2-(hydroxymethyl)benzyl)-3-(methoxymethyl)-3,4-dihydropyrrolo[1,2-a] pyrazine-1(2H)-one] the IC50 [3] was 1.6 nM, the IC50 [1] was 16.7 nM and the IC50 [4] was 1.2 nM.
For Cn1nccc1Nc1cc(-c2cc3n(c2)CCN(Cc2ccc(F)cc2CO)C3=O)c(Cl)cn1 [Example 149, 7-(5-chloro-2-((1-methyl-1h-pyrazole-5-yl)amino)pyridine-4-yl)-2-(4-fluoro-2-(hydroxymethyl)benzyl)-3,4-dihydropyrrolo[1,2-a] pyrazine-1(2H)-one], the IC50 [2] was 21.2 nM.
In the case of Cn1nccc1Nc1cc(-c2cc3n(c2)CCN(Cc2cc(F)ccc2CO)C3=O)c(C(F)(F)F)cn1 [Example 161, (5-fluoro-2-(hydroxylmethyl)benzyl)-7-(2-((1-methyl-1h-pyrazole-5-yl)amino)-5-(trifluoromethyl)pyridin-4-yl)-3,4-dihydropyrrolo [1,2-a]pyrazine-1(2H)-one], the IC50 [2] is reported as 24.6 nM.
In the case of CC(C)Nc1cc(-c2c[nH]c(C(=O)NCc3cccc(F)c3)c2)c(Cl)cn1 [Example D6, 4-(5-chloro-2-(isopropylamino)pyridine-4-yl)-N-(3-fluorobenzyl)-1h-pyrrole-2-formamide, reference compound], the IC50 [3] is reported as 44 nM, the IC50 [1] is reported as greater than 10000 nM and the IC50 [4] is reported as 26 nM.
CC(C)Nc1cc(-c2cc3n(c2)CC(CO)CN(Cc2cccc(Cl)c2)C3=O)c(Cl)cn1 (stereo not drawn) [Example D7, 8-(5-chloro-2-(isopropylamino)pyridin-4-yl)-2-(3-chlorophenylmethyl)-4-(hydroxymethyl)-2,3,4,5-tetrahydro-1h-pyrrolo [1,2-a][1,4]diazepine-1-one, reference compound] showed an IC50 [3] greater than 300 nM, an IC50 [1] greater than 10000 nM and an IC50 [4] greater than 300 nM.
Cn1nccc1Nc1cc(-c2cc3n(c2)CCN(Cc2cccc(F)c2)C3=O)c(Cl)cn1 [Example D9, 7-(5-chloro-2-((1-methyl-1h-pyrazole-5-yl)amino)pyridine-4-yl)-2-(3-fluorobenzyl)-3,4-dihydropyrrolo[1,2-a] pyrazine-1(2H)-one, reference compound] showed an IC50 [2] of 53.6 nM.
Cn1nccc1Nc1cc(-c2cc3n(c2)CCN(Cc2cc(F)cc(F)c2)C3=O)c(Cl)cn1 [Example D10, 7-(5-chloro-2-((1-methyl-1h-pyrazole-5-yl)amino)pyridine-4-yl)-2-(3,5-difluorobenzyl)-3,4-dihydropyrrolo[1,2-a] pyrazine-1(2H)-one, reference compound] gave an IC50 [2] of 52.3 nM.
